The record followed here is ChEMBL document CHEMBL1150977, “A quantitative analysis of kinase inhibitor selectivity” (Nat Biotechnol, 2008).

The structures appear in SMILES notation.

Assay [1] has as its target Fibroblast growth factor receptor 3 (Homo sapiens, UniProt P22607).
Assay [2] has as its target Cyclin-dependent kinase 5 (Homo sapiens, UniProt Q00535).
The target of assay [3] is Mitogen-activated protein kinase kinase kinase 11 (Homo sapiens, UniProt Q16584).
The target of assay [4] is T1, Cyclin-G-associated kinase (Homo sapiens, UniProt O14976).
T1 sequence (O14976 whole entry): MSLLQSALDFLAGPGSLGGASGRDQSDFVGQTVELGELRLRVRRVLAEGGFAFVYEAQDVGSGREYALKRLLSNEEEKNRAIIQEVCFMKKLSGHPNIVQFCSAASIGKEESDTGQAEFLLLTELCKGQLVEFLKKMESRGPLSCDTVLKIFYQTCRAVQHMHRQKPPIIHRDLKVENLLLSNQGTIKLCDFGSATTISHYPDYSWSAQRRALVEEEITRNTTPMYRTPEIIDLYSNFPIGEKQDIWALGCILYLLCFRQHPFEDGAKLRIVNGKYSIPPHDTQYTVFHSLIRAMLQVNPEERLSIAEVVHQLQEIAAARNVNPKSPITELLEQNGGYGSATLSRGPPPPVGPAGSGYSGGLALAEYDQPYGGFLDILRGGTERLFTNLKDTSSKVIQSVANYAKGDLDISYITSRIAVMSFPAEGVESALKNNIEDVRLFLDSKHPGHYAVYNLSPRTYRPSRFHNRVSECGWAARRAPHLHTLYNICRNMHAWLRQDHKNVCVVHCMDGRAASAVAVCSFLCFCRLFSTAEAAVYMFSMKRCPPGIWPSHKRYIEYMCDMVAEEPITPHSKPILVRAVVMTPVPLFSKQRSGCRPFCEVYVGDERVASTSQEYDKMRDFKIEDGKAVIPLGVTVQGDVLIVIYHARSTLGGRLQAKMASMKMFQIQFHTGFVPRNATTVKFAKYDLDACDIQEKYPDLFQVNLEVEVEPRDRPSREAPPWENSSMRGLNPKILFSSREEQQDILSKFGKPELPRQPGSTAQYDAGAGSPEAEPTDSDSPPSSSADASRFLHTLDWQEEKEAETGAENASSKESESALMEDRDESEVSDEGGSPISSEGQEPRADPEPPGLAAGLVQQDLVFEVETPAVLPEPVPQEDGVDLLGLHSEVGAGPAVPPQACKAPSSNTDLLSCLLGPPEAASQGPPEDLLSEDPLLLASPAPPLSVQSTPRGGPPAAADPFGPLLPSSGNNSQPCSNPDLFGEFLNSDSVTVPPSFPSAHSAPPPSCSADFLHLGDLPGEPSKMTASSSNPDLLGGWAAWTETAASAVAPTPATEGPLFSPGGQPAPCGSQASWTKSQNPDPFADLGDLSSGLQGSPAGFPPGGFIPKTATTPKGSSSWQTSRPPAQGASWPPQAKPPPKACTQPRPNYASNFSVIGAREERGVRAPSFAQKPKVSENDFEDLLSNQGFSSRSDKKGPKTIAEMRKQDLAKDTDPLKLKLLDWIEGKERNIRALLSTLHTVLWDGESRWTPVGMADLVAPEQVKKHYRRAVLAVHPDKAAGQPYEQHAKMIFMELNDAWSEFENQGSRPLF

Assay [5] deals with Dual specificity mitogen-activated protein kinase kinase 1 (Homo sapiens, UniProt Q02750).
Assay [6] concerns the target Vascular endothelial growth factor receptor 2 (Homo sapiens, UniProt P35968).
Assay [7] concerns the target AP2-associated protein kinase 1 (Homo sapiens, UniProt Q2M2I8).
Assay [8] concerns the target Serine/threonine-protein kinase 10 (Homo sapiens, UniProt O94804).
Assay [9] deals with Myosin light chain kinase, smooth muscle (Homo sapiens, UniProt Q15746).
Myosin light chain kinase, smooth muscle, sequence (Q15746 whole entry): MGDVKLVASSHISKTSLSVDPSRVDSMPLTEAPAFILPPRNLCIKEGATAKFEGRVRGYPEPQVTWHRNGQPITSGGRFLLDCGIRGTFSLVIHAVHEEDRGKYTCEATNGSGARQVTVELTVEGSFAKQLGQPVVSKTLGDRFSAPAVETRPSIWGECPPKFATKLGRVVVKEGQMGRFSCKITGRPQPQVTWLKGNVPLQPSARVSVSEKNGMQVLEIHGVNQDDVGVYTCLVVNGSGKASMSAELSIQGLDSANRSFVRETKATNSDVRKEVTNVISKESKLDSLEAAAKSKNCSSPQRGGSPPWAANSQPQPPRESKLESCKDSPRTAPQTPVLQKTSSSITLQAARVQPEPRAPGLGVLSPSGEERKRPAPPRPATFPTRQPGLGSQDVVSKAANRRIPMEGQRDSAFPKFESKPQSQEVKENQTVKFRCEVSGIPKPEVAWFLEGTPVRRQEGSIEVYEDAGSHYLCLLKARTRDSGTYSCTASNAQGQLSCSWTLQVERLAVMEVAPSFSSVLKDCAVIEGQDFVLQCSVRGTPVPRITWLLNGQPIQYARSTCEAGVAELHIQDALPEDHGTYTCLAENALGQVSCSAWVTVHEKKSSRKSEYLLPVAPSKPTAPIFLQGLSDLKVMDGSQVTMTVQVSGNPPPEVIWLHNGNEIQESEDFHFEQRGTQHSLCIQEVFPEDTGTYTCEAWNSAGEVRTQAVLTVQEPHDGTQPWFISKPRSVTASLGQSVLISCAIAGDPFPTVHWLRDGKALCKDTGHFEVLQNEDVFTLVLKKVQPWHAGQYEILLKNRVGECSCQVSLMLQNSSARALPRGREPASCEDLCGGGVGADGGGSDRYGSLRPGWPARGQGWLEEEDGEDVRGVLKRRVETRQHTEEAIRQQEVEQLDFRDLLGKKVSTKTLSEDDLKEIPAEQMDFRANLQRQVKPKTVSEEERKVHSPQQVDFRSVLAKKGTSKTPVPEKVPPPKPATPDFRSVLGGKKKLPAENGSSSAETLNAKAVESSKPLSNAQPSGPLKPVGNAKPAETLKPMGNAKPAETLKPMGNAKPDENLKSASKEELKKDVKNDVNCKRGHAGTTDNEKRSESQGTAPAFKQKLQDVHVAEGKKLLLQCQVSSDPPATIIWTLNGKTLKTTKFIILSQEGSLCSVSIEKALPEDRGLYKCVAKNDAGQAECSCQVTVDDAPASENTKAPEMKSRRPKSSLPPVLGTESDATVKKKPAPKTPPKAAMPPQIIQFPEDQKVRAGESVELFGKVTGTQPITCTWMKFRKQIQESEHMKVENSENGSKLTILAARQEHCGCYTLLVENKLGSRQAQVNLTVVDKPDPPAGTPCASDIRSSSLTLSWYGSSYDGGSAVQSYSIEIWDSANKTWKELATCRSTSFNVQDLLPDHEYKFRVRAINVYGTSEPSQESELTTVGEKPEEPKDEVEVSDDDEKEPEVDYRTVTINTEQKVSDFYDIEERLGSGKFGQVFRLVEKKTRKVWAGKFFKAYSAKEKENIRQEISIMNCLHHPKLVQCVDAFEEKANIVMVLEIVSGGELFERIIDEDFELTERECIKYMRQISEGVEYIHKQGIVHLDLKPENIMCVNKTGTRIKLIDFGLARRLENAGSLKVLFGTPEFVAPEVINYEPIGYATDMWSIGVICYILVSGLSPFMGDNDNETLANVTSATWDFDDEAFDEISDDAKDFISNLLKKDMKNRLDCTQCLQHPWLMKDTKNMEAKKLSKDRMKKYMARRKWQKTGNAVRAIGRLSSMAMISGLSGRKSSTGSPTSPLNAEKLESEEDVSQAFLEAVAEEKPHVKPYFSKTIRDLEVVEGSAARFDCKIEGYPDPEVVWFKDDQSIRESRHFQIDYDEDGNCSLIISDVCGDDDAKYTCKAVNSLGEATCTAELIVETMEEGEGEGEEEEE
The next assay has as its target T2, TGF-beta receptor type-1 (Homo sapiens, UniProt P36897).
T2 sequence (P36897 whole entry): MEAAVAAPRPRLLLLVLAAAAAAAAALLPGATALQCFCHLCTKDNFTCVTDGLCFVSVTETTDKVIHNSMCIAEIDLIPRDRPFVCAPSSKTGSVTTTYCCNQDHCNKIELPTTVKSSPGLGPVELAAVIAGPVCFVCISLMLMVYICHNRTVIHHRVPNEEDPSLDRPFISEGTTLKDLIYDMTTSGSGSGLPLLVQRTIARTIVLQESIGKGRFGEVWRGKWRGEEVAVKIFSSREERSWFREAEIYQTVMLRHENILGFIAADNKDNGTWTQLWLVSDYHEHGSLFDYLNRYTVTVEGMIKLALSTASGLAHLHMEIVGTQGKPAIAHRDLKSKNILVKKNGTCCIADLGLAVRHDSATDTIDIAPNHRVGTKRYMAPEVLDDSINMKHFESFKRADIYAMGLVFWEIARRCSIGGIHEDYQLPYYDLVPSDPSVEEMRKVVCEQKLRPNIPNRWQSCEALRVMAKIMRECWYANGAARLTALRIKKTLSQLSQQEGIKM

For assay [10], the target named is Dual specificity protein kinase CLK4 (Homo sapiens, UniProt Q9HAZ1).
Dual specificity protein kinase CLK4, sequence (Q9HAZ1 whole entry): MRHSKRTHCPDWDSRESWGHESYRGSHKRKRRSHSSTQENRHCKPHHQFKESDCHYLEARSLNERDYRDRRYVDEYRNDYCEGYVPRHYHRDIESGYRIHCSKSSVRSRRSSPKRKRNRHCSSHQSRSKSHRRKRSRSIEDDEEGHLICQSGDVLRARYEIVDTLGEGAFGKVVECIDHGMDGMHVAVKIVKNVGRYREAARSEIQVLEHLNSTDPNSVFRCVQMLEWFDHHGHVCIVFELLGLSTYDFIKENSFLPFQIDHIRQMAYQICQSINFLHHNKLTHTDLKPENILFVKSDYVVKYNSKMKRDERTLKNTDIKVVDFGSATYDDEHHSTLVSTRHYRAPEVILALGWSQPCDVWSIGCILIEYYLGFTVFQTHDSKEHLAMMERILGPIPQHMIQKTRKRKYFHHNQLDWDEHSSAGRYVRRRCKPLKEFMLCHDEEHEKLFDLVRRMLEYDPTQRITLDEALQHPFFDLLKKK
The target in assay [11] is Tyrosine-protein kinase Fyn (Homo sapiens, UniProt P06241).
Tyrosine-protein kinase Fyn, sequence (P06241 whole entry): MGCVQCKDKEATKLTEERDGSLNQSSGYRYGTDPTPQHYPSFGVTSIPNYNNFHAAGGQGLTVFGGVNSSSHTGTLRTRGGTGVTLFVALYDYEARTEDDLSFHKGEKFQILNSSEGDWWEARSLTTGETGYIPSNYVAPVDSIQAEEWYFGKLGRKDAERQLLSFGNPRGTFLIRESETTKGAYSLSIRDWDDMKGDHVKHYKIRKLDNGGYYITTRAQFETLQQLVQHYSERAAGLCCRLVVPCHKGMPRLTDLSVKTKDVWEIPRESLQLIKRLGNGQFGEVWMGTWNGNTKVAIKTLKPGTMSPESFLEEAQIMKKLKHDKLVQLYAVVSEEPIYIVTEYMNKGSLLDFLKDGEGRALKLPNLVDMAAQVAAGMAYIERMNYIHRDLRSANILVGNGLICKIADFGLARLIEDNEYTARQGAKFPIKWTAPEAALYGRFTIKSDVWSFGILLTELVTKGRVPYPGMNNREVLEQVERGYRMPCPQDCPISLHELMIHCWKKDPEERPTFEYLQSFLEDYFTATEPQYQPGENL
In assay [12] the target is Tyrosine-protein kinase ABL1 (Homo sapiens, UniProt P00519, H396P).

Cyclin-dependent kinase 5, sequence (Q00535 whole entry): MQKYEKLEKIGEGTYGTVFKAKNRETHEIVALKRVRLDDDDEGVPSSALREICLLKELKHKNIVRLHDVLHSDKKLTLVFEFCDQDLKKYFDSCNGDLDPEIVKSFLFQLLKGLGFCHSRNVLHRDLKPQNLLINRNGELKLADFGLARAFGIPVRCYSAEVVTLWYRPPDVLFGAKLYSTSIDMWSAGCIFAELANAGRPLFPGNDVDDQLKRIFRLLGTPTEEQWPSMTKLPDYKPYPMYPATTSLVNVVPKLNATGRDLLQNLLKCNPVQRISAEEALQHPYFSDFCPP
Mitogen-activated protein kinase kinase kinase 11, sequence (Q16584 whole entry): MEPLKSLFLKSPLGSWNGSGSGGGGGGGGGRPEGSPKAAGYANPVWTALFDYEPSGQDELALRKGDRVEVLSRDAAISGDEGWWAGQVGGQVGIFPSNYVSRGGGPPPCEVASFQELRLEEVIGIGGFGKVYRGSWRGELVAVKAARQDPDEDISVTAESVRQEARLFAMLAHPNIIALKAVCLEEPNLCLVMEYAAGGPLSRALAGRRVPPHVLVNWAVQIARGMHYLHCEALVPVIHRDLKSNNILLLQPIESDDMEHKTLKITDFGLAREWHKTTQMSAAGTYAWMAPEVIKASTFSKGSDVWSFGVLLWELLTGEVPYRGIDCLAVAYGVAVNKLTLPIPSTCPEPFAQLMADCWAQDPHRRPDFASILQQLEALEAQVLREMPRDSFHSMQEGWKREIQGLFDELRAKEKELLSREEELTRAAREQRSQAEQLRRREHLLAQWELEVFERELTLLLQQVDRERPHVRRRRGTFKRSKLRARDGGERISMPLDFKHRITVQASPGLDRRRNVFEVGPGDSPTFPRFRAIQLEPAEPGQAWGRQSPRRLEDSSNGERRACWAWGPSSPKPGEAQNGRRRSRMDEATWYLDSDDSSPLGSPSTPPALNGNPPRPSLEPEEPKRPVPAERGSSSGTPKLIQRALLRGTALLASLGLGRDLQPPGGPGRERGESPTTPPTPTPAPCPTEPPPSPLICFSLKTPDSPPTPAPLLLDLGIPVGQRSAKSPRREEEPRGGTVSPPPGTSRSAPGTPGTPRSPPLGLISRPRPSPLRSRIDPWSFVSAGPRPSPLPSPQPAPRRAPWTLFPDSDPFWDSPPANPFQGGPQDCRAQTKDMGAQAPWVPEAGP
Fibroblast growth factor receptor 3, sequence (P22607 whole entry): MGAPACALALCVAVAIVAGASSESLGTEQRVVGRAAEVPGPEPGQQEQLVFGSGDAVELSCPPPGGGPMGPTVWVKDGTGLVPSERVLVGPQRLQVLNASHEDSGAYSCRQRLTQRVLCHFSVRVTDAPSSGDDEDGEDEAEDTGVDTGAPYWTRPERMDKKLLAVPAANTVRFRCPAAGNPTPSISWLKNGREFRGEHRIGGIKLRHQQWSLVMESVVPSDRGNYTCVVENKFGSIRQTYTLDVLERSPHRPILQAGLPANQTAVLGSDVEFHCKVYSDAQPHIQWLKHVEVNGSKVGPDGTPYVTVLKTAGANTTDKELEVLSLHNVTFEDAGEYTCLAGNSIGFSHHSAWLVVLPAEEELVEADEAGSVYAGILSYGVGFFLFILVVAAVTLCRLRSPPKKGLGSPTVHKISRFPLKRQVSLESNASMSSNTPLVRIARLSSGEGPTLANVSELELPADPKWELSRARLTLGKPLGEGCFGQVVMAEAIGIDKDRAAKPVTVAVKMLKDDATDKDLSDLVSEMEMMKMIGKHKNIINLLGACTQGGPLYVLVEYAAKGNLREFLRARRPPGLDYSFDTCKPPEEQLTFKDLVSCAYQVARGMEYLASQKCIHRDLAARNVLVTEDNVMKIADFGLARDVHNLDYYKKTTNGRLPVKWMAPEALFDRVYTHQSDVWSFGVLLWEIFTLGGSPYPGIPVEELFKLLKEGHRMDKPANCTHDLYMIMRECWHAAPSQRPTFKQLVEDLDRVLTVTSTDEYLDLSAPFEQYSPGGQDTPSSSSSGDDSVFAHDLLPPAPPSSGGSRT

A word on the Kd: it is the free concentration of one partner at which half of the binding sites on the other are occupied at equilibrium, for simple one-to-one binding. Higher therefore signals a looser complex. Consider `CCN1CCN(Cc2ccc(NC(=O)Nc3ccc(Oc4cc(NC)ncn4)cc3)cc2C(F)(F)F)CC1` [AST-487], for which the results for the Kd in assay [1], in assay [2] and in assay [3] were > 10 µM, 1 µM and > 10 µM, respectively.
For `COCC(=O)NC/C=C/c1ccc2ncnc(Nc3ccc(Oc4ccc(C)nc4)c(C)c3)c2c1` [CP-724714], the dissociation constant Kd in assay [4], in assay [1], in [2], in assay [5], in assay [6] and in assay [7] was > 10 µM each time. For the same molecule, the equilibrium dissociation constant (Kd) (in assay [8]; in assay [9]; on TGF-beta receptor type-1; in assay [10]; in [11]; in assay [12]) was > 10 µM each time.
As to `Nc1nc(Nc2ccc(S(N)(=O)=O)cc2)nn1C(=O)c1c(F)cccc1F` [JNJ-7706621], the Kd (in assay [3]; on TGF-beta receptor type-1) was > 10 µM throughout.
As to `CCOc1cc2ncc(C#N)c(Nc3ccc(F)c(Cl)c3)c2cc1NC(=O)/C=C/CN(C)C` [PELITINIB], the Kd in assay [4] is 0.0064 µM; in [1] it was > 10 µM; in assay [2], > 10 µM; in assay [6] it was > 10 µM; in [9] it was > 10 µM; at TGF-beta receptor type-1, > 10 µM.
For the molecule `Oc1ccc(-c2nc(-c3ccncc3)c(-c3ccc(F)cc3)[nH]2)cc1` [SB-202190], the Kd in assay [1], in [2], in assay [5], in assay [6], in [7] and in assay [8] was > 10 µM in each case. In addition, the Kd (in [3]; in assay [9]; on TGF-beta receptor type-1; in assay [10]; in assay [11]; in assay [12]) was > 10 µM each time.
As for `NC(=O)c1ccc(-c2nc(-c3ccc4c(c3)OCO4)c(-c3ccccn3)[nH]2)cc1` [SB-431542], the Kd in [4], in assay [1], in assay [2], in assay [5], in [6] and in assay [7] was > 10 µM in each case. Further, the equilibrium dissociation constant (Kd) in assay [8], in assay [3], in [9], in assay [10], in assay [11] and in assay [12] was > 10 µM throughout.
